{
  "source": "patent US9303069B2",
  "about": "“Peptides for treating cancer” (University of Mississippi Medical Center, priority 2014, dated 2016)",
  "key": {"[1]": {"system": "MDA-MB-468 cells", "conditions": "48 h", "quoted_text": "(§2) All cell lines were exposed to increasing concentrations of paclitaxel and BRCA1-IRIS expression, and cells' viability was then measured.\nStable clones were then exposed to 0, 10 or 20 μM of EGFR (Erlotinib), ErbB2 (CP-724714), PI3′K/AKT (LY294002), p38 (SB203580), ERK (PD98059) or JNK (SP600125) inhibitors for 24 hours.\nFirst, to assess the effect of this IRIS peptide, equal numbers of HME, HME/IRIS, MDA-MB-231, MDA-MB-468 and BT549 cells were exposed to increasing concentrations of scrambled or IRIS peptide for 48 hours.\nCell viability under different experimental conditions was determined using the MTS assay. Briefly, cells (2.5×10^4 cells per well) were seeded in 96-well plates and incubated overnight at 37° C. in 10% humidified CO2 atmosphere. The next day they were incubated with varying concentration of peptide, or inhibitors for 24 hours at 37° C. Cell viability was determined using cell Titer 96® Aqueous (Promega, Madison, Wis., USA) following manufacturer's instructions. Cell viability (%) was expressed as a ratio of treated cells to control cells×100. Growth inhibition was also determined by manually counting cells in five different microscopic fields. Change in cell numbers (fold) was expressed as a ratio of the means of these recording of treated cells compared to control cells×100. Each experiment was done in triplicate, repeated three separate times."}, "[2]": {"system": "SKOV3 cells", "experiment": "Three-dimensional (3D) growth / acini formation in matrigel, SKOV3", "type": "cell-based, human"}, "[3]": {"system": "BRCA1-IRIS, TrkB, ErbB2, AKT, p-AKT, p-FOXO, Cyclin D1, Bcl-2 and survivin", "experiment": "Expression of growth and survival proteins in HOSE and HOSE/IRIS cells (Western)", "type": "cell-based, human", "conditions": "IRIS peptide 5 μM, cisplatin 10 μM, combination 2.5 μM IRIS peptide + 5 μM cisplatin", "excerpt": "(§1) HOSE cells overexpressing IRIS show a higher degree of resistance to cisplatin than HOSE cells (compare blue to black line in FIG. 30)."}, "[4]": {"system": "BT549 cells", "conditions": "48 h", "quoted_text": "as §2\nCell viability measurement. Cell viability under different experimental conditions was determined using the MTS assay. Briefly, cells (2.5×10^4 cells per well) were seeded in 96-well plates and incubated overnight at 37° C. in 10% humidified CO2 atmosphere. The next day they were incubated with varying concentration of peptide, or inhibitors for 24 hours at 37° C. Cell viability was determined using cell Titer 96® Aqueous (Promega, Madison, Wis., USA) following manufacturer's instructions. Cell viability (%) was expressed as a ratio of treated cells to control cells×100. […] Each experiment was done in triplicate, repeated three separate times."}, "[5]": {"system": "BRCA1-IRIS and survivin", "experiment": "IHC of SKOV3 tumors for BRCA1-IRIS and survivin", "type": "in vivo, mice", "conditions": "SKOV3 tumors after treatment", "excerpt": "Isolated tumors were mounted, sectioned and IHC stained for BRCA1-IRIS and survivin. […] It is possible that SKOV3 contain a heterogeneous population of cells that differ in their BRCA1-IRIS expression and thus that the remaining tumors are from those expressing no or low BRCA1-IRIS.\nImmunohistochemistry (IHC). Ovarian tissue microarrays comprised of normal, cancer and metastatic tissues were purchased from US Biomax, Inc. Paraffin-embedded tissue sections were de-waxed in xylene and rehydrated in alcohol. Antigen-retrieval for FOXO3a and survivin was performed by heating the slides in citrate buffer (10 μM, pH 6.0) using microwave for 10 minutes. Slides were then cooled to room temperature (RT) and washed with water followed by PBS for 15 minutes each. Antigen-retrieval for BRCA1-IRIS was performed by incubating the slides in pepsin (10 μM) for 20 minutes at 37° C. Endogenous peroxidase activity was suppressed by treating the slides with 3% hydrogen peroxide for 10 minutes. After washing steps slides were incubated for 1 hour at room temperature with antibodies to human FOXO3a (Cell Signaling Technology, USA 1:400) and survivin (Cell Signaling Technology, USA 1:400). For BRCA1-IRIS staining, slides were incubated overnight at 4° C. with monoclonal BRCA1-IRIS antibody at a 1:75 dilution. […]"}, "[6]": {"system": "HOSE and HOSE/IRIS cells", "experiment": "Survival of HOSE versus HOSE/IRIS cells", "type": "cell-based, human", "conditions": "pre-treatment with 5 μM of IRIS peptide", "experimental": "To test that, HOSE or HOSE/IRIS cells were incubated for 24 hours with 10 μM of ErbB2 (CP-724714), EGFR (Erlotinib), TrkB (K252a), JNK (SP600125), p38 (SB203580), ERK (PD98059) and PI3′K/AKT (LY294002) inhibitors. […] Taken together, BRCA1-IRIS overexpression activates AKT and ERK, thereby inactivating FOXO3a and promoting Cyclin D1, survivin, Bcl-2 and NF-κB expression and suppressing p27 expression (FIG. 15).\nas §1\nCell viability measurement. Cell viability under different experimental conditions was determined using the MTS assay […]. Briefly, SKOV3, OVACAR3, HOSE and HOSE/IRIS cells (2.5×10^4 cells per well) were seeded in 96 well plates and incubated overnight at 37° C. in 10% humidified CO2 atmosphere in varying concentrations of IRIS peptide, or inhibitors of ErbB2 (CP-724714), EGFR (Erlotinib), TrkB (K252a), JNK (SP600125), p38 (SB203580), ERK (PD98059) and PI3′K/AKT (LY294002) inhibitors for 24 hours at 37° C. Cell Titer 96® Aqueous (Promega, Madison, Wis., USA) was used to measure viability following manufactures instructions. Cell viability (%) was expressed as a ratio to control cells×100. Growth inhibition was also determined by manually counting cells in five different microscopic fields. Change in cell numbers (fold) was expressed as a ratio to control cells×100. All experiments were done in at least triplicates, three different times. * is p≦0.05, ** is p≦0.001 and *** is p≦0.0001."}, "[7]": {"system": "SKOV3 cells", "experiment": "Invasion assay, matrigel-coated Boyden chambers, SKOV3", "type": "cell-based, human", "conditions": "72 hours, IRIS peptide 5 μM, versus control-treated cells", "experimental": "Invasion assay: Control (transfected with siLuc or treated with scrambled peptide, 5 μM) or shIRIS expressing SKOV3 cells were layered on top of matrigel-coated Boyden chambers. Some cultures were treated with 5 μM IRIS peptide. Seventy-two hours later, cells that invaded the matrigel and migrated to the lower side of the chambers were stained with Crystal Violet, counted and photographed. […] Similarly, BRCA1-IRIS silenced cells also lost their invasion ability by ˜75 fold (compare C to A in FIG. 36 and FIG. 35).\nCell Invasion assay. Growth reduced BD Matrigel™ invasion chamber (24 well plate, 8.0 μm, BD BioCoat™) was used to study the invasion ability of control and shBRCA1-IRIS cells. Cells (5×10^3) in complete medium (500 μl) were seeded on the upper compartment, and the lower compartment was filled with 750 μl of complete growth medium. Cells were incubated for 72 hours. The medium from the upper chamber was removed, and the cells on the upper surface of the membrane were removed carefully with a cotton swab. Invasive cells in lower side of the membrane were stained with crystal violet dye for 10 minutes. After staining, the upper chamber was rinse thoroughly with water until the water runs clear. Stained and dry chambers were visualized with microscope and photographed."}, "[8]": {"system": "HME, MDA-MB-231, MDA-MB-468 and BT549 cells", "experiment": "Survival of breast cell lines after siRNA transfection followed by IRIS peptide", "type": "cell-based, human", "conditions": "siRNA 48 hours, then IRIS peptide 24 hours", "experimental": "To rule out any off target effect of this peptide, HME, MDA-MB-231, MDA-MB-468 and BT549 cells were first transfected with luciferase (siLuc) or BRCA1-IRIS (siIRIS) siRNA for 48 hours before they were exposed to increasing concentrations of IRIS peptide for an additional 24 hours. As would be expected from treatments that target the same target, whether inactivating BRCA1-IRIS (FIG. 81) or depleting its mRNA first (FIG. 82) the percentages of cells remained following these treatments were identical (see FIG. 83).\nSmall interfering RNA transfections. Specific siRNAs for luciferase (negative control) or human BRCA1-IRIS were obtained from Ambion, USA. Transfection was done using Oligofectamine™ reagent (GibcoBRL Inc, USA) and standard protocol (for reference see ElShamy and Livingston, 2004). Knockdwon of the target protein was usually confirmed by Western blotting 72 hours later. Cell viability was evaluated by MTS or by manual counting after 72 hours of siRNA transfection or combined with paclitaxel (24 hour exposure). Each experiment was done in triplicate, repeated three separate times"}},
  "note": "Ends that are not written are not given here.",
  "data": [
    {"sequence": "RRIRPRPPRLPRPRPRPLPFPRPGIGTRFLCLPQSIYRSELNVYAFGEHILQISKYS [IRIS peptide]", "values": [
      {"measurement": "IC50", "setting": "[1]", "value": "~5", "unit": "µM"},
      {"measurement": "decrease in ability to form invasive structures in matrigel", "setting": "[2]; SKOV3 cells", "value": "> 500", "unit": "fold"},
      {"measurement": "acini phenotype", "setting": "[2]; SKOV3 in matrigel, day 10, peptide added every third day", "value": "slightly bigger/organized/round acini"},
      {"measurement": "expression of BRCA1-IRIS, TrkB, ErbB2, AKT, p-AKT, p-FOXO, Cyclin D1, Bcl-2 and survivin", "setting": "[3]", "value": "significant decrease"},
      {"measurement": "IC50", "setting": "[4]", "value": "~5", "unit": "µM"},
      {"measurement": "BRCA1-IRIS and survivin staining of remaining tumor", "setting": "[5]", "value": "almost complete absence of BRCA1-IRIS and survivin staining"},
      {"measurement": "effect on survival", "setting": "[6]", "value": "decreased survival of HOSE and HOSE/IRIS cells"},
      {"measurement": "sensitization to cisplatin", "setting": "[6]; then cisplatin", "value": "sensitized HOSE and HOSE/IRIS cells to low concentrations of cisplatin"},
      {"measurement": "decreased ability to invade", "setting": "[7]", "value": "~100", "unit": "fold"},
      {"measurement": "percentages of cells remaining, IRIS peptide after siIRIS versus after siLuc", "setting": "[8]", "value": "identical"}
    ]}
  ]
}
